Assay results taken from article PMC4384654 (ChemMedChem, 2014).
Values joined by “and” are separate entries in the source; they are usually repeats but may differ in a detail not shown here. Equal values may be shown once. Read-outs that look alike come from different tables or passages of the source.

How the values were obtained:
[1] = target: T1, FAAH prepared from rat brain homogenates (Rattus norvegicus, UniProt P97612); assay: In vitro rat FAAH radiometric assay; type: biochemical; conditions: for IC50: read-out: r-FAAH IC50; for IC50 / % inhibition of FAAH activity at 100 μM: rat brain homogenate; for Increase in potency vs 34a: relative to 34a
T1 sequence (P97612 1-579): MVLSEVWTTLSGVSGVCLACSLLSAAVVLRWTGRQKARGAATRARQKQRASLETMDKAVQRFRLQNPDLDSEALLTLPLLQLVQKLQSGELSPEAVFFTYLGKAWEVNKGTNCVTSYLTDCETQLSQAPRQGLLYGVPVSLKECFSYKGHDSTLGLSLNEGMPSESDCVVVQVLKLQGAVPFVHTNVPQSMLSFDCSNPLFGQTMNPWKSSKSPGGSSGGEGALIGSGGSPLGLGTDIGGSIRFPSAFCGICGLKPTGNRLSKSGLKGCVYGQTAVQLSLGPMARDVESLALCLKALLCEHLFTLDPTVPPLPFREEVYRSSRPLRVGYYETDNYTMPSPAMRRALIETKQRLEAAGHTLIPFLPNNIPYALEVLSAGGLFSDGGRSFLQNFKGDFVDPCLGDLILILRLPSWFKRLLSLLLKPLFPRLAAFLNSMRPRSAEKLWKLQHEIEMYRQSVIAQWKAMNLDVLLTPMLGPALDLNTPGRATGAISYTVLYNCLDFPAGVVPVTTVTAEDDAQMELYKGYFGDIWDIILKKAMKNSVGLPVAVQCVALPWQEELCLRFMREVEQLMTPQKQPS

human FAAH-1 = target: T2, human FAAH-1 (Homo sapiens, UniProt O00519); assay: In vitro human FAAH fluorescent assay; type: biochemical; conditions: h-FAAH-1 IC50 relative to r-FAAH IC50
T2 sequence (O00519 1-579): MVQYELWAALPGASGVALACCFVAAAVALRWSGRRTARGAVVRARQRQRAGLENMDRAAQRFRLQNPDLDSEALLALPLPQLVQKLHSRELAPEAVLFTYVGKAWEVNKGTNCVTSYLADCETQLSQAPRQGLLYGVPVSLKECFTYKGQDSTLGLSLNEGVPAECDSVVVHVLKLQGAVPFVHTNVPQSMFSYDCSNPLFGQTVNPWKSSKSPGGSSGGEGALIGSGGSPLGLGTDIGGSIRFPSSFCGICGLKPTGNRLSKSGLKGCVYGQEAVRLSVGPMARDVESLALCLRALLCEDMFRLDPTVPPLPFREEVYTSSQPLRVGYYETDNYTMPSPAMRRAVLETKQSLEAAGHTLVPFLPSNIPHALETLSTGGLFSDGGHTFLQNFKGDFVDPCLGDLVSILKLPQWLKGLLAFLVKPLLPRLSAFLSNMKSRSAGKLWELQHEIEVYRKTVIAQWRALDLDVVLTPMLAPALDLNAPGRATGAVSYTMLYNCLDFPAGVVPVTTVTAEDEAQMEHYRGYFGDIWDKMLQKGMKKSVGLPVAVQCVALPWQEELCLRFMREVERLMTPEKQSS

`O=C(NC1CCCCC1)OCc1cccc(-c2ccccc2)c1` [Compound 4, (3-phenylphenyl)methyl N-cyclohexylcarbamate] was tested, and the inhibition at 100 µM ([1]; read-out: % inhibition of FAAH activity at 100 μM) was 65%.

In the case of `O=C(NC1CCCCC1)OCc1cn(-c2ccccc2)nn1` [Compound 17, (1-phenyltriazol-4-yl)methyl N-cyclohexylcarbamate], the IC50 ([1]; mean ± SEM (n=3)) is reported as 381 nM.

`O=C(NC1CCCCC1)OCc1cn(Cc2ccccc2)nn1` [Compound 18, (1-benzyltriazol-4-yl)methyl N-cyclohexylcarbamate] was tested, and the “Less potent than 1a (URB524)” value ([1]; r-FAAH, relative to 1a) was 4.6 fold, the “Increase in potency vs compound 17” value ([1]; r-FAAH, relative to 17) was “ca. 15 fold” and the IC50 ([1]; mean ± SEM (n=3)) was 26 nM and 26.2 nM.

Work on `O=C(NC1CCCCC1)OCc1cn(CCc2ccccc2)nn1` [Compound 19, (1-phenethyltriazol-4-yl)methyl N-cyclohexylcarbamate] yielded an IC50 ([1]; mean ± SEM (n=3)) of 833 ± 129 nM.

`O=C(NC1CCCCC1)OCc1cn(C(c2ccccc2)c2ccccc2)nn1` [Compound 20, (1-benzhydryltriazol-4-yl)methyl N-cyclohexylcarbamate] was tested, and the “% inhibition of FAAH activity at 100 μM” value [1] was 73% @ 100 μM.

`O=C(NC1CCCCC1)OCc1cn(Cc2ccc3ccccc3c2)nn1` [Compound 21, [1-(2-naphthylmethyl)triazol-4-yl]methyl N-cyclohexylcarbamate] gave an IC50 [1] of 2000 nM and an IC50 ([1]; mean ± SEM (n=3)) of 2000 ± 636 nM.

For `N#Cc1ccccc1Cn1cc(COC(=O)NC2CCCCC2)nn1` [Compound 22a, [1-[(2-cyanophenyl)methyl]triazol-4-yl]methyl N-cyclohexylcarbamate], the IC50 ([1]; mean ± SEM (n=3)) was 19.5 ± 4.3 nM.

Compound `N#Cc1cccc(Cn2cc(COC(=O)NC3CCCCC3)nn2)c1` [Compound 22b, [1-[(3-cyanophenyl)methyl]triazol-4-yl]methyl N-cyclohexylcarbamate] has an IC50 ([1]; mean ± SEM (n=3)) of 21.5 ± 7.9 nM.

Work on `N#Cc1ccc(Cn2cc(COC(=O)NC3CCCCC3)nn2)cc1` [Compound 22c, [1-[(4-cyanophenyl)methyl]triazol-4-yl]methyl N-cyclohexylcarbamate] yielded an IC50 ([1]; mean ± SEM (n=3)) of 2280 ± 585 nM.

For `O=C(NC1CCCCC1)OCc1cn(Cc2ccccc2F)nn1` [Compound 23a, [1-[(2-fluorophenyl)methyl]triazol-4-yl]methyl N-cyclohexylcarbamate], the IC50 ([1]; mean ± SEM (n=3)) was 9.9 ± 1.9 nM and the “Loss of potency on h-FAAH-1 vs r-FAAH” value (human FAAH-1) was 62 fold.

In the case of `O=C(NC1CCCCC1)OCc1cn(Cc2cccc(F)c2)nn1` [Compound 23b, [1-[(3-fluorophenyl)methyl]triazol-4-yl]methyl N-cyclohexylcarbamate], the IC50 ([1]; mean ± SEM (n=3)) is reported as 12.1 ± 0.8 nM.

Compound `O=C(NC1CCCCC1)OCc1cn(Cc2ccc(F)cc2)nn1` [Compound 23c, [1-[(4-fluorophenyl)methyl]triazol-4-yl]methyl N-cyclohexylcarbamate] has an IC50 ([1]; mean ± SEM (n=3)) of 95.5 ± 22.2 nM.

In the case of `O=C(NC1CCCCC1)OCc1cn(Cc2ccccc2Cl)nn1` [Compound 24a, [1-[(2-chlorophenyl)methyl]triazol-4-yl]methyl N-cyclohexylcarbamate], the IC50 ([1]; mean ± SEM (n=3)) is reported as 6.2 ± 1.3 nM and the “Loss of potency on h-FAAH-1 vs r-FAAH” value (human FAAH-1) is reported as 172 fold.

With `O=C(NC1CCCCC1)OCc1cn(Cc2cccc(Cl)c2)nn1` [Compound 24b, [1-[(3-chlorophenyl)methyl]triazol-4-yl]methyl N-cyclohexylcarbamate] the IC50 ([1]; mean ± SEM (n=3)) was 13.2 ± 2.8 nM.

For `O=C(NC1CCCCC1)OCc1cn(Cc2ccc(Cl)cc2)nn1` [Compound 24c, [1-[(4-chlorophenyl)methyl]triazol-4-yl]methyl N-cyclohexylcarbamate], the IC50 ([1]; mean ± SEM (n=3)) was 215 ± 31 nM.

`Cc1ccccc1Cn1cc(COC(=O)NC2CCCCC2)nn1` [Compound 25a, [1-(o-tolylmethyl)triazol-4-yl]methyl N-cyclohexylcarbamate] was tested, and the IC50 ([1]; mean ± SEM (n=3)) was 21.5 ± 1.2 nM.

`Cc1cccc(Cn2cc(COC(=O)NC3CCCCC3)nn2)c1` [Compound 25b, [1-(m-tolylmethyl)triazol-4-yl]methyl N-cyclohexylcarbamate] gave an IC50 ([1]; mean ± SEM (n=3)) of 24.5 ± 6.2 nM.

Compound `Cc1ccc(Cn2cc(COC(=O)NC3CCCCC3)nn2)cc1` [Compound 25c, [1-(p-tolylmethyl)triazol-4-yl]methyl N-cyclohexylcarbamate] has an IC50 ([1]; mean ± SEM (n=3)) of 500 ± 44 nM.

With `COc1ccccc1Cn1cc(COC(=O)NC2CCCCC2)nn1` [Compound 26a, [1-[(2-methoxyphenyl)methyl]triazol-4-yl]methyl N-cyclohexylcarbamate] the IC50 ([1]; mean ± SEM (n=3)) was 1.4 ± 0.2 nM and the “Loss of potency on h-FAAH-1 vs r-FAAH” value (human FAAH-1) was 240 fold.

`COc1cccc(Cn2cc(COC(=O)NC3CCCCC3)nn2)c1` [Compound 26b, [1-[(3-methoxyphenyl)methyl]triazol-4-yl]methyl N-cyclohexylcarbamate] showed an IC50 ([1]; mean ± SEM (n=3)) of 11.8 ± 3.7 nM.

In the case of `COc1ccc(Cn2cc(COC(=O)NC3CCCCC3)nn2)cc1` [Compound 26c, [1-[(4-methoxyphenyl)methyl]triazol-4-yl]methyl N-cyclohexylcarbamate], the IC50 ([1]; mean ± SEM (n=3)) is reported as 627 ± 173 nM.

Work on `O=C(NC1CCCCC1)OCc1cn(Cc2c(F)cccc2F)nn1` [Compound 28, [1-[(2,6-difluorophenyl)methyl]triazol-4-yl]methyl N-cyclohexylcarbamate] yielded an IC50 ([1]; mean ± SEM (n=3)) of 11.9 ± 1 nM.

Compound `O=C(NC1CCCCC1)OCc1cn(Cc2cc(F)cc(F)c2)nn1` [Compound 29, [1-[(3,5-difluorophenyl)methyl]triazol-4-yl]methyl N-cyclohexylcarbamate] has an IC50 ([1]; mean ± SEM (n=3)) of 10.4 ± 2.6 nM.

In the case of `COc1cccc(Cn2cc(COC(=O)NC3CCCCC3)nn2)c1F` [Compound 30, [1-[(2-fluoro-3-methoxy-phenyl)methyl]triazol-4-yl]methyl N-cyclohexylcarbamate], the IC50 ([1]; mean ± SEM (n=3)) is reported as 44.6 ± 10.3 nM.

With `O=C(NC1CCCCC1)OCCc1cn(-c2ccccc2)nn1` [Compound 32, 2-(1-phenyltriazol-4-yl)ethyl N-cyclohexylcarbamate] the “Decrease in potency vs compound 17” value ([1]; r-FAAH, relative to 17) was “ca. 3 fold” and the IC50 ([1]; mean ± SEM (n=3)) was 1280 ± 84 nM.

`O=C(NC1CCCCC1)OCCc1cn(Cc2ccccc2)nn1` [Compound 33, 2-(1-benzyltriazol-4-yl)ethyl N-cyclohexylcarbamate] showed an IC50 ([1]; mean ± SEM (n=3)) of 2540 ± 106 nM.

`COc1ccccc1Cn1cc(CNC(=O)OCc2cn(Cc3ccccc3OC)nn2)nn1` [Compound 34a, [1-[(2-methoxyphenyl)methyl]triazol-4-yl]methyl N-[[1-[(2-methoxyphenyl)methyl]triazol-4-yl]methyl]carbamate] was tested, and the IC50 ([1]; mean ± SEM (n=3)) was 154 ± 14 nM.

In the case of `COc1cccc(Cn2cc(CNC(=O)OCc3cn(Cc4ccccc4OC)nn3)nn2)c1` [Compound 37, [1-[(2-methoxyphenyl)methyl]triazol-4-yl]methyl N-[[1-[(3-methoxyphenyl)methyl]triazol-4-yl]methyl]carbamate], the “Increase in potency vs 34a” value ([1]; r-FAAH) is reported as 48 fold, the IC50 ([1]; mean ± SEM (n=3)) is reported as 3.2 ± 1.2 nM and the “Loss of potency on h-FAAH-1 vs r-FAAH” value (human FAAH-1) is reported as 4 to 10 fold.

For `COc1ccc(Cn2cc(CNC(=O)OCc3cn(Cc4ccccc4OC)nn3)nn2)cc1` [Compound 38, [1-[(2-methoxyphenyl)methyl]triazol-4-yl]methyl N-[[1-[(4-methoxyphenyl)methyl]triazol-4-yl]methyl]carbamate], the IC50 ([1]; mean ± SEM (n=3)) was 7.6 ± 0.6 nM and the “Loss of potency on h-FAAH-1 vs r-FAAH” value (human FAAH-1) was 4 to 10 fold.

In the case of `COc1cccc(Cn2cc(COC(=O)NCc3cn(Cc4ccccc4OC)nn3)nn2)c1` [Compound 39, [1-[(3-methoxyphenyl)methyl]triazol-4-yl]methyl N-[[1-[(2-methoxyphenyl)methyl]triazol-4-yl]methyl]carbamate], the “Increase in potency vs 34a” value ([1]; r-FAAH) is reported as “ca. 15 fold”, the IC50 ([1]; mean ± SEM (n=3)) is reported as 9.8 ± 0.4 nM and the “Loss of potency on h-FAAH-1 vs r-FAAH” value (human FAAH-1) is reported as 4 to 10 fold.

`O=C(NC1CCCCC1)OCc1ncn(-c2ccccc2)n1` [Compound 43] was tested, and the “% inhibition of FAAH activity at 100 μM” value [1] was 70% @ 100 μM.

In the case of `O=C(NC1CCCCC1)OCc1ncn(Cc2ccccc2)n1` [Compound 46], the IC50 ([1]; mean ± SEM (n=3)) is reported as 51500 ± 1120 nM.
